Data taken from patent US8921577B2, “Cholecystokinin receptor ligands” (PNB Vesper Life Sciences Pvt. Ltd., priority 2012, dated 2014).
pIC50: −log10 of the molar value.

Assays:
CCKA receptor = biological target: T1, CCKA receptor (Rattus norvegicus, UniProt P30551); assay: [125]I-CCK-8 receptor binding assay, CCKA (rat pancreas membranes); settings: for pIC50: rat pancreas membranes, 125I-Bolton-Hunter labeled CCK 25 pM, pH 6.5, 2 hrs at RT, read-out: Binding affinity Activity CCK-A
T1 construct: Pancreatic membranes were prepared in a similar way described by Charpentier et al; from tissue; host or cells: rat pancreas membranes
T1 sequence (P30551 1-444): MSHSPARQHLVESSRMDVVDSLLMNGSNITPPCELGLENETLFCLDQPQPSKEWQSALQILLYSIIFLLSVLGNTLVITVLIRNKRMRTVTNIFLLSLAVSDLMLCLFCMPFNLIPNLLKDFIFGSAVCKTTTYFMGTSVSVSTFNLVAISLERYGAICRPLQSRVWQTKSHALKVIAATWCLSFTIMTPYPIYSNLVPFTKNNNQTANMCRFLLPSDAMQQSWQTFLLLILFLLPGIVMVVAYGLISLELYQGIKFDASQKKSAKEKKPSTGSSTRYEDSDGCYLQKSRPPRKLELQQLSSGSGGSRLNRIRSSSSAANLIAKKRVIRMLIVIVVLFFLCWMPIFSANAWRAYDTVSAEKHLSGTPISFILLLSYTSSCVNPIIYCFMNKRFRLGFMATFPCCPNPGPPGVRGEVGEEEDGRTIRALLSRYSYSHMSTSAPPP
Experimental: (§1) CCKA and CCKB receptor binding assays were performed using guinea pig cerebral cortex (CCKB) and rat pancreas (CCKA). Male guinea pig brain tissues were prepared according to the modified method described by Saita et al, [(1994), Eur. J. Pharmacol., 269, 249-254]. Pancreatic membranes were prepared in a similar way described by Charpentier et al, [(1988), Proc Natl Acad Sci USA, 85, 1968-1972]. Briefly, tissues were homogenized in ice cold sucrose (0.32 M, 25 ml) for 15 strokes at 500 rpm and centrifuged at 13000 rpm for 10 mins. The supernatant was re-centrifuged at 13000 rpm for 20 mins. The resulting pellet was re-dispersed to the required volume of buffer at 500 rpm and stored in aliquots at −70° C.
(§2) Binding was achieved using a radioligand ^125I-Bolton-Hunter labeled CCK, NEN at 25 pM. The samples were incubated {with membranes (0.1 mg/ml)} in 20 mM Hepes, 1 mM EGTA, 5 mM MgCl2, 150 mm NaCl, 0.25 mg/ml bacitracin at pH 6.5 for 2 hrs at RT and then […] by centrifugation at 1100 rpm for 5 minutes. The membrane pellets were washed twice with water and the bound radioactivity was measured in a Packard Cobra Auto-gamma counter (B5005). All binding assays were carried out with L-363, 260 as an internal non-specific standard. Controls (no compound) were also added. All samples were made in duplicate and repeated twice. All compounds were initially screened for percentage inhibition at 10 μm. Samples showing an average inhibition of >35% were diluted to 1 μm and re-screened and if active diluted again.

CCKB receptor = biological target: T2, CCKB receptor (Cavia porcellus, UniProt H0VZC5); assay: [125]I-CCK-8 receptor binding assay, CCKB (guinea pig cerebral cortex membranes); settings: for pIC50: guinea pig cerebral cortex membranes, 125I-Bolton-Hunter labeled CCK 25 pM, pH 6.5, 2 hrs at RT, read-out: Binding affinity Activity CCK-B
T2 construct: Male guinea pig brain tissues were prepared according to the modified method described by Saita et al; from tissue; host or cells: male guinea pig cerebral cortex membranes
T2 sequence (H0VZC5 1-426): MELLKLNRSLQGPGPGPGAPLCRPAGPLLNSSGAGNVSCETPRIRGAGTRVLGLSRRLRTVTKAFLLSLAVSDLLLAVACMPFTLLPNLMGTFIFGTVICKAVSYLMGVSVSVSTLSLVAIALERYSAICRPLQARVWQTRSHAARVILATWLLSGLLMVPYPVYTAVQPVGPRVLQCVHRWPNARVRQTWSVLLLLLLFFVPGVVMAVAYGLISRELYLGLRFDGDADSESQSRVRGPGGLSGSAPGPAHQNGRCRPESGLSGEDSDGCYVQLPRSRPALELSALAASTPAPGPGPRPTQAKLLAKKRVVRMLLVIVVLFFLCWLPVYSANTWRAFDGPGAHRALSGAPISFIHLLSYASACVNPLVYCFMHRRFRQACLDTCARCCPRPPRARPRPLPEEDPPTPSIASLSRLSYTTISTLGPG
Experimental: as §1, §2

## CC(C)N1C(=O)C=C(Cl)C1(O)c1ccc(Cl)cc1 (stereo not drawn) [Example 13, 4-Chloro-5-(4-chloro-phenyl)-5-hydroxy-1-isopropyl-1,5-dihydro-pyrrol-2-one]
CCKA receptor
  pIC50: < 5.00
CCKB receptor
  pIC50: < 5.00

## O=C1C=C(Cl)C(O)(c2ccccc2)N1CCc1ccccc1 (stereo not drawn) [Example 5, 4-Chloro-5-hydroxy-1-phenethyl-5-phenyl-1,5-dihydro-pyrrol-2-one]
other
  melting point: 155 to 158 °C
CCKA receptor; judgement in words on CCK-A and CCK-B binding
  CCK antagonist character (in words): potent and mixed CCK antagonist
CCKA receptor
  pIC50: 7.70
CCKB receptor
  pIC50: 7.70

## CC(C)N1C(=O)C=C(Cl)C1(O)c1ccccc1 (stereo not drawn) [Example 3, 4-Chloro-5-hydroxy-1-isopropyl-5-phenyl-1,5-dihydro-pyrrol-2-one]
CCKA receptor
  pIC50: < 5.00
CCKB receptor
  pIC50: < 5.00

## CCCCCCN1C(=O)C=C(Cl)C1(O)c1ccc(Cl)cc1 (stereo not drawn) [Example 16, 4-Chloro-5-(4-chloro-phenyl)-1-hexyl-5-hydroxy-1,5-dihydro-pyrrol-2-one]
CCKA receptor
  pIC50: < 5.00
CCKB receptor
  pIC50: < 5.00

## C[C@H](c1ccccc1)N1C(=O)C=C(Cl)C1(O)c1ccccc1 (single isomer, unassigned) [Example 10b]
CCKA receptor
  pIC50: < 5.00
CCKB receptor
  pIC50: < 5.00

## O=C1C=C(Cl)C(O)(c2ccc(Cl)cc2)N1C1CC1 (stereo not drawn) [Example 12, 4-Chloro-5-(4-chloro-phenyl)-1-cyclopropyl-5-hydroxy-1,5-dihydro-pyrrol-2-one]
CCKA receptor
  pIC50: 5.12
CCKB receptor
  pIC50: < 5.00

## O=C1C=C(Cl)C(O)(c2ccc(Cl)cc2)N1CCc1ccccc1 (stereo not drawn) [Example 15, 4-Chloro-5-(4-chloro-phenyl)-5-hydroxy-1-phenethyl-1,5-dihydro-pyrrol-2-one]
other
  melting point: 145 to 148 °C
CCKA receptor
  pIC50: 8.70
CCKB receptor
  pIC50: 8.82

## O=C1C=C(Cl)C(O)(c2ccccc2)N1C1CCCCC1 (stereo not drawn) [Example 11, 4-Chloro-1-cyclohexyl-5-hydroxy-5-phenyl-1,5-dihydro-pyrrol-2-one]
CCKA receptor
  pIC50: < 5.00
CCKB receptor
  pIC50: < 5.00

## O=C1C=C(Cl)C(O)(c2ccccc2)N1C1CC1 (stereo not drawn) [Example 1, 4-Chloro-1-cyclopropyl-5-hydroxy-5-phenyl-1,5-dihydro-pyrrol-2-one]
CCKA receptor
  pIC50: 5.60
CCKB receptor
  pIC50: < 5.00

## CC(C)CN1C(=O)C=C(Cl)C1(O)c1ccccc1 (stereo not drawn) [Example 8, 4-Chloro-5-hydroxy-1-isobutyl-5-phenyl-1,5-dihydro-pyrrol-2-one]
CCKA receptor
  pIC50: 5.35
CCKB receptor
  pIC50: 8.00
CCKB receptor; judgement in words
  affinity towards the CCK B receptor (in words): good affinity

## O=C1C=C(Cl)C(O)(c2ccc(Cl)cc2)N1C1CCCC1 (stereo not drawn) [Example 17, 4-Chloro-5-(4-chloro-phenyl)-1-cyclopentyl-5-hydroxy-1,5-dihydro-pyrrol-2-one]
CCKA receptor
  pIC50: 5.60
CCKB receptor
  pIC50: < 5.00

## Cc1ccc(N2C(=O)C=C(Cl)C2(O)c2ccccc2)cc1C (stereo not drawn) [Example 2, 4-Chloro-1-(3,4-dimethyl-phenyl)-5-hydroxy-5-phenyl-1,5-dihydro-pyrrol-2-one]
other
  melting point: 168 to 171 °C
CCKA receptor
  pIC50: 5.70
CCKB receptor
  pIC50: < 5.00

## CN1C(=O)C=C(Cl)C1(O)c1ccccc1 (stereo not drawn) [Example 4, 4-Chloro-5-hydroxy-1-methyl-5-phenyl-1,5-dihydro-pyrrol-2-one]
CCKA receptor
  pIC50: < 5.00
CCKB receptor
  pIC50: < 5.00

## O=C1C=C(Cl)C(O)(c2ccccc2)N1C1CCCC1 (stereo not drawn) [Example 7, 4-Chloro-1-cyclopentyl-5-hydroxy-5-phenyl-1,5-dihydro-pyrrol-2-one]
CCKA receptor
  pIC50: 6.44
CCKB receptor
  pIC50: 6.08

## CCCCCCN1C(=O)C=C(Cl)C1(O)c1ccccc1 (stereo not drawn) [Example 6, 4-Chloro-1-hexyl-5-hydroxy-5-phenyl-1,5-dihydro-pyrrol-2-one]
CCKA receptor
  pIC50: < 5.00
CCKB receptor
  pIC50: < 5.00

## O=C1C=C(Cl)C(O)(c2ccccc2)N1Cc1ccccc1 (stereo not drawn) [Example 9, 1-Benzyl-4-chloro-5-hydroxy-5-phenyl-1,5-dihydro-pyrrol-2-one]
CCKA receptor
  pIC50: < 5.00
CCKB receptor
  pIC50: < 5.00

## O=C1C=C(Cl)C(O)(c2ccc(Cl)cc2)N1Cc1ccccc1 (stereo not drawn) [Example 19, 1-Benzyl-4-chloro-5-(4-chloro-phenyl)-5-hydroxy-1,5-dihydro-pyrrol-2-one]
other
  melting point: 149 to 152 °C
CCKA receptor
  pIC50: 5.66
CCKB receptor
  pIC50: < 5.00

## CN1C(=O)C=C(Cl)C1(O)c1ccc(Cl)cc1 (stereo not drawn) [Example 14, 4-Chloro-5-(4-chloro-phenyl)-5-hydroxy-1-methyl-1,5-dihydro-pyrrol-2-one]
CCKA receptor
  pIC50: < 5.00
CCKB receptor
  pIC50: < 5.00

## C[C@H](c1ccccc1)N1C(=O)C=C(Cl)C1(O)c1ccccc1 (single isomer, unassigned) [Example 10a]
other
  melting point: 162 to 164 °C
CCKA receptor
  pIC50: < 5.00
CCKB receptor
  pIC50: < 5.00
